Data on 17 compounds can be found in patent EP4806904A1, “POLYPEPTIDE AND USE THEREOF” (Sichuan Gooddoctor Panxi Pharmaceutical Co. Ltd, priority 2023, dated 2026).

For experiment [1], the system named is primary neural stem cells (NSCs). The experiment in a line: Differentiation of primary neural stem cells, βIII-tubulin fluorescence and Neurite Outgrowth Assay. Type of experiment: cell-based, SD rats. The settings on record: 100 µg/mL; for mean fluorescence intensity of the neuronal marker protein βIII-tubulin / neurite outgrowth (total neurite length, maximum neurite length, neurite terminals, neurite initiation points) / Neurite initiation points (branches) / Total neurite length / Longest neurite length / Number of neurite terminals / Average fluorescence intensity: 4 days; for mean fluorescence intensity of the neuronal marker protein βIII-tubulin: vs blank control group; for mean fluorescence intensity of the neuronal marker protein βIII-tubulin / neurite outgrowth (total neurite length, maximum neurite length, neurite terminals, neurite initiation points): in words; for neurite outgrowth (total neurite length, maximum neurite length, neurite terminals, neurite initiation points): Neurite Outgrowth Assay; for Neurite initiation points (branches) / Total neurite length / Longest neurite length / Number of neurite terminals / Average fluorescence intensity: significance vs blank control group; for differentiation of NSCs into neuronal cells: conclusion based on the results of the two analytical methods; for Average fluorescence intensity: βIII-tubulin. On the procedure:
This part of the experiment requires feeding male and female rats in advance, then extracting hippocampal neural stem cells from newborn SD rats within 24 h of birth, culturing them to P3 for identification, and then using them for experiments. • (1) Extraction and culture of primary neural stem cells (NSCs) • (2) NSCs that have been passaged to P3 and have good viability were seeded in differentiation medium (2% FBS+DMEM/F12 1:1 medium) in 48-well plates with a cell concentration of 5×10^4 cells/mL per well. After overnight culture for cell adherence, the cells were treated with drugs; • (3) Drug treatment was applied. The final concentration of the polypeptide of the invention was 100 µg/mL. Meanwhile, nerve growth factor (NGF, 50 ng/mL) was set as the positive control, and the cells were cultured in the incubator for another 4 days; • (4) Immunofluorescence staining (primary antibody βIII-tubulin) was performed after 4 days of treatment. The average fluorescence intensity of βIII-tubulin was analyzed and the Neurite Outgrowth Assay was performed using a high-content cell imaging analysis system.

The test system of experiment [2] is Brain microvascular endothelial cells (BMECs) and brain microvascular smooth muscle cells (BMVSMCs). The experiment in a line: In vitro angiogenesis assay, BMEC/BMVSMC co-culture on matrigel. Type of experiment: cell-based, mouse. To be noted: 0.1 mg/L, 48 h. The protocol: First, mouse brain microvascular pellets were obtained by differential centrifugation. Brain microvascular endothelial cells (BMECs) and brain microvascular smooth muscle cells (BMVSMCs) were isolated by digestion with collagenase II, respectively, and cultured in a cell incubator with 5% CO2 at 37°C . Cells at passages 3-6 in good growth condition and logarithmic growth phase were selected for the in vitro angiogenesis assay.
One night before the experiment, the high-concentration matrigel was transferred from a -20°C or -80°C refrigerator to a 4°C refrigerator and allowed to thaw slowly overnight in the 4°C refrigerator. Pipette tips required for the formal experiment were sterilized in advance and pre-cooled in a 4°C refrigerator for subsequent use.
On the day of the experiment, the matrigel was added to a 96-well plate 1 h in advance and placed in a 37°C cell incubator until it solidified. Subsequently, the cells were washed 2 times with 2 mL of PBS buffer, followed by digestion with 0.25% trypsin to obtain EC and VSMC pellets, respectively, and cell counting was performed. A uniform cell suspension containing 5×10^3 BMVSMCs and 1×10^3 BMECs per well was then seeded into the 96-well plate pre-coated with the matrigel, and cultured in a 37°C, 5% CO2 cell incubator for 3 days.
During the culture period, tube formation was observed daily. The medium was changed on day 4, followed by treatment with the polypeptide of the invention at 0.1 mg/L or VEGFA at 10/15/20 ng/L for 48 h, respectively.
On day 5, the cell nuclei and live cells were labeled with Hoechst 33342 and Calcein AM, respectively. High-content brightfield and fluorescence imaging were then performed using a high-content screening system. Finally, angiogenesis in each treatment group was analyzed using the Angiogenesis Analyzer plugin for ImageJ, and statistical analysis was carried out with GraphPad Prism 10.

[3] abbreviates: significance vs blank control group.

Where a SMILES comes first, the peptide text is derived from it. [ ]: non-standard residue; d: D form.

Consider “H-PAPGTL-OH [Compound 26, H-Pro-Ala-Pro-Gly-Thr-Leu-OH]”, for which the “mean fluorescence intensity of the neuronal marker protein βIII-tubulin” value (from here on “mean fluorescence intensity”) in experiment [1] is reported as “tendency to enhance”. Also, in experiment [2] (setting [3]), the Branch length entry is “* (*p < 0.05)” and the Number of intersections entry is given as “* (*p < 0.05)”. Moreover, in experiment [2] (vs normal group, in words), the angiogenesis-promoting effects result was “exhibited angiogenesis-promoting effects”.
As to “Ac-ALPAPGTL-OH [Compound 9, Ac-Ala-Leu-Pro-Ala-Pro-Gly-Thr-Leu-OH]”, in experiment [2] (setting [3]), the Branch length entry is “* (*p < 0.05)”. In experiment [2] (vs normal group, in words), the Branch length result was “promoting effects” and the number of junctions result is “no significant effects”.
Regarding `CC(=O)N[C@@H](C)C(=O)N[C@@H](CC(C)C)C(=O)N1CCC[C@H]1C(=O)N[C@@H](C)C(=O)N1CCC[C@@H]1C(=O)NCC(=O)N[C@H](C(=O)N[C@@H](CC(C)C)C(N)=O)[C@@H](C)O` [Compound 41, Ac-Ala-Leu-Pro-Ala-D-Pro-Gly-Thr-Leu-NH2] (Ac-ALPA[dP]GTL-NH2), in experiment [1], the “neurite outgrowth (total neurite length, maximum neurite length, neurite terminals, neurite initiation points)” value (“neurite outgrowth” for short) was “tendency to promote neurite outgrowth”; the “Neurite initiation points (branches)” value is on record as “* (*p < 0.05)”; the Total neurite length result is “* (*p < 0.05)”. Further, in experiment [2] (setting [3]), the Branch length entry was “** (**p < 0.01)”, the Cell count entry is listed as “*** (***p < 0.001)” and the Number of intersections entry is recorded as “** (**p < 0.01)”. Also, the angiogenesis-promoting effects entry in experiment [2] (vs normal group, in words) is reported as “exhibited angiogenesis-promoting effects”.
Regarding “H-QLPAPGTL-OH [Compound 22, H-Gln-Leu-Pro-Ala-Pro-Gly-Thr-Leu-OH]”, in experiment [1], the “neurite outgrowth” value was “promote neurite outgrowth”; the Longest neurite length entry is recorded as “* (*p < 0.05)”; the “Neurite initiation points (branches)” value is “* (*p < 0.05)”; the “Number of neurite terminals” value was “* (*p < 0.05)”. The Total neurite length result in experiment [1] was “* (*p < 0.05)”. In addition, the Branch length entry in experiment [2] (setting [3]) was “* (*p < 0.05)”. Moreover, in experiment [2] (vs normal group, in words), the Branch length entry is recorded as “promoting effects” and the number of junctions result is “no significant effects”.
With `CC(C)C[C@H](NC(=O)[C@H](C)N)C(=O)N1CCC[C@H]1C(=O)N[C@@H](C)C(=O)O` [Compound 35, H-Ala-Leu-Pro-Ala-OH] (H-ALPA-OH), in experiment [1], the “neurite outgrowth” value was “promote neurite outgrowth”; the Longest neurite length result was “** (**p < 0.01)”; the “Neurite initiation points (branches)” value is on record as “* (*p < 0.05)”; the “Number of neurite terminals” value is given as “* (*p < 0.05)”. Also, in experiment [1], the Total neurite length result is listed as “* (*p < 0.05)”, the “mean fluorescence intensity” value was “significant increase”, the “differentiation of NSCs into neuronal cells” value is “promote the differentiation of NSCs into neuronal cells with stable effects” and the Average fluorescence intensity entry is listed as “* (*p < 0.05)”. In addition, in experiment [2] (setting [3]), the Cell count entry was “** (**p < 0.01)”. Besides, the cell proliferation result in experiment [2] (vs normal group, in words) is reported as “only promoted cell proliferation”.
For “H-QLPAPGTLQHF-OH [Compound 25, H-Gln-Leu-Pro-Ala-Pro-Gly-Thr-Leu-Gln-His-Phe-OH]”, in experiment [1], the “mean fluorescence intensity” value is “significant increase” and the Average fluorescence intensity entry is recorded as “* (*p < 0.05)”. In addition, in experiment [2] (setting [3]), the Cell count entry is “** (**p < 0.01)”. For the same compound, the cell proliferation entry in experiment [2] (vs normal group, in words) is on record as “only promoted cell proliferation”.
As to “H-ALPAPGT-OH [Compound 39, H-Ala-Leu-Pro-Ala-Pro-Gly-Thr-OH]”, in experiment [2] (setting [3]), the Branch length entry is “** (**p < 0.01)”, the Cell count result is on record as “* (*p < 0.05)” and the Number of intersections result is on record as “** (**p < 0.01)”. Moreover, the angiogenesis-promoting effects entry in experiment [2] (vs normal group, in words) is reported as “exhibited angiogenesis-promoting effects”.
Turning to “H-PAPGT-OH [Compound 27, H-Pro-Ala-Pro-Gly-Thr-OH]”, in experiment [1], the “neurite outgrowth” value was “promote neurite outgrowth”; the Longest neurite length entry is on record as “** (**p < 0.01)”; the “Neurite initiation points (branches)” value is reported as “** (**p < 0.01)”; the “Number of neurite terminals” value was “* (*p < 0.05)”. Further, the Total neurite length entry in experiment [1] was “* (*p < 0.05)”.
For the compound “H-APGTL-OH [Compound 34, H-Ala-Pro-Gly-Thr-Leu-OH]”, in experiment [1], the “neurite outgrowth” value is on record as “promote neurite outgrowth”; the Longest neurite length entry is given as “* (*p < 0.05)”; the “Neurite initiation points (branches)” value is reported as “* (*p < 0.05)”; the “Number of neurite terminals” value is given as “** (**p < 0.01)”. In experiment [1], the Total neurite length entry is listed as “* (*p < 0.05)”, the “mean fluorescence intensity” value is listed as “significant increase”, the “differentiation of NSCs into neuronal cells” value is given as “promote the differentiation of NSCs into neuronal cells with stable effects” and the Average fluorescence intensity entry is recorded as “* (*p < 0.05)”. Further, in experiment [2] (setting [3]), the Branch length result was “** (**p < 0.01)”, the Cell count entry was “** (**p < 0.01)” and the Number of intersections result is listed as “** (**p < 0.01)”. Moreover, in experiment [2] (vs normal group, in words), the angiogenesis-promoting effects result was “exhibited angiogenesis-promoting effects”.
As to “H-LPAPGTL-OH [Compound 29, H-Leu-Pro-Ala-Pro-Gly-Thr-Leu-OH]”, the “mean fluorescence intensity” value in experiment [1] is “tendency to enhance”.
For “H-AKNQLPAPGTLQHFC-OH [Compound 24, H-Ala-Lys-Asn-Gln-Leu-Pro-Ala-Pro-Gly-Thr-Leu-Gln-His-Phe-Cys-OH]”, in experiment [1], the “Neurite initiation points (branches)” value is reported as “* (*p < 0.05)”, the “mean fluorescence intensity” value is given as “significant increase” and the Average fluorescence intensity result was “* (*p < 0.05)”.
Take “H-ALPAP-OH [Compound 30, H-Ala-Leu-Pro-Ala-Pro-OH]”: in experiment [1], the “neurite outgrowth” value is “tendency to promote neurite outgrowth”; the Longest neurite length entry is listed as “* (*p < 0.05)”; the “mean fluorescence intensity” value is given as “significant increase”; the Average fluorescence intensity result is “*** (***p < 0.001)”. Besides, in experiment [2] (setting [3]), the Branch length entry was “* (*p < 0.05)” and the Cell count entry is given as “** (**p < 0.01)”.
With `CC(=O)N[C@@H](C)C(=O)N[C@@H](CC(C)C)C(=O)N1CCC[C@H]1C(=O)N[C@H](C)C(=O)N1CCC[C@H]1C(=O)NCC(=O)N[C@H](C(=O)N[C@@H](CC(C)C)C(N)=O)[C@@H](C)O` [Compound 42, Ac-Ala-Leu-Pro-D-Ala-Pro-Gly-Thr-Leu-NH2] (Ac-ALP[dA]PGTL-NH2), in experiment [1], the “mean fluorescence intensity” value is listed as “significant increase” and the Average fluorescence intensity result is “* (*p < 0.05)”. In addition, in experiment [2] (setting [3]), the Branch length entry is on record as “* (*p < 0.05)” and the Cell count entry is reported as “* (*p < 0.05)”. Besides, in experiment [2] (vs normal group, in words), the Branch length result is reported as “promoting effects” and the number of junctions result is given as “no significant effects”.
For `CC(C)C[C@H](N)C(=O)N1CCC[C@H]1C(=O)N[C@@H](C)C(=O)N1CCC[C@H]1C(=O)O` [Compound 31, H-Leu-Pro-Ala-Pro-OH] (H-LPAP-OH), the “mean fluorescence intensity” value in experiment [1] is reported as “tendency to enhance”. For the same compound, in experiment [2] (setting [3]), the Branch length result was “** (**p < 0.01)”.
Turning to “H-ALGAPGTL-OH [Compound 14, H-Ala-Leu-Gly-Ala-Pro-Gly-Thr-Leu-OH]”, in experiment [2] (setting [3]), the Cell count entry is given as “* (*p < 0.05)” and the Number of intersections result is on record as “* (*p < 0.05)”. In experiment [2] (vs normal group, in words), the Branch length result is “no significant effects” and the number of junctions result is on record as “promoting effects”.
Consider “H-PIASQHLNLAPAPGTI-OH [Compound 23, H-Pro-Ile-Ala-Ser-Gln-His-Leu-Asn-Leu-Ala-Pro-Ala-Pro-Gly-Thr-Ile-OH]”, for which, in experiment [1], the “neurite outgrowth” value was “tendency to promote neurite outgrowth”; the “Number of neurite terminals” value is given as “* (*p < 0.05)”; the Total neurite length result is “* (*p < 0.05)”; the “mean fluorescence intensity” value was “tendency to enhance”.
For the compound “H-LPAPG-OH [Compound 33, H-Leu-Pro-Ala-Pro-Gly-OH]”, in experiment [2] (setting [3]), the Branch length entry is “** (**p < 0.01)”, the Cell count entry is “** (**p < 0.01)” and the Number of intersections result is listed as “** (**p < 0.01)”. Besides, the angiogenesis-promoting effects entry in experiment [2] (vs normal group, in words) is “exhibited angiogenesis-promoting effects”.
